Measured values reported in patent publication US20260144752A1, “Multilamellar Vesicles and Methods and Uses Thereof” (ChromoLogic LLC, priority 2022, published 2026).

Columns and labels:
γ-H2AX = assay: IR-induced DNA double strand breaks, γ-H2AX immunohistochemistry in irradiated cells; assay type: cell-based; details: cells treated prior to irradiation of 0 Gy and 5 Gy, FIGS. 4A-4B
Text: In various embodiments JP4-039-MLVs have the ability to reduce IR-induced DNA double strand breaks (DSBs). IR induces DNA damage resulting in double strand breaks that can result in mitotic failure and cell death. Secondary oxidative stress induces further DNA damage. In response to double strand breaks, the histone H2AX is rapidly phosphorylated, producing γ-H2AX, a standard biomarker of DNA damage. […] FIGS. 4A-4B illustrate exemplary data from an embodiment showing the ability to reduce DNA DSBs. Specifically, FIG. 4A provides confocal images of cells treated with DMSO (control), JP4-039, and JP4-039-MLVs prior to irradiation of 0 Gy and 5 Gy. Cell nuclei are stained with DAPI (blue) and γ-H2AX is visualized by immunohistochemistry (green), while FIG. 4B illustrates relative frequency of γ-H2AX+ cells by counting blue puncta and green puncta.

lipid peroxidation = assay: Lipid peroxidation in cells exposed to IR; assay type: cell-based; details: cells exposed to 5 Gy IR, FIG. 5A
Text: (§1) In various embodiments JP4-039-MLV nanoparticles protect cells from IR-induced oxidative stress. In addition to DNA damage, IR-induced oxidative stress can result in lipid peroxidation, mitochondrial membrane permeability, and an increase in ROS concentration. FIGS. 5A-5C provide exemplary data of an embodiment showing reduction of IR-induced cellular dysregulation.

[1] = tested on: mitochondrial membrane permeability; assay: Mitochondrial membrane permeability in cells exposed to IR; assay type: cell-based; details: cells exposed to 10 Gy IR, FIG. 5B
Text: as §1

ROS = ROS levels in cells exposed to IR; assay type: cell-based; details: cells exposed to 5 Gy IR, FIG. 5C
Text: as §1

[2] = stated for comparison; cited from earlier work
[3] = tested on: γ-H2AX+ intestinal crypt cells; details: mice, 9.25 Gy TBI; cited from earlier work
[4] = cited from earlier work
[5] = cited from earlier work; remark: listed apart in the source

Substance: JP4-039
- protection from IR-induced DNA damage (relative frequency of γ-H2AX+ cells) (γ-H2AX): protected cells from IR-induced DNA damage
- levels of lipid peroxidation (lipid peroxidation): reduce levels of lipid peroxidation
- levels of mitochondrial membrane permeability [1]: reduced levels of mitochondrial membrane permeability
- ROS levels (ROS): reduced ROS levels
- in vivo half-life [2]: approximately 6 hours
- number of γ-H2AX+ intestinal crypt cells [3]: reduce the number of γ-H2AX+ intestinal crypt cells
- solubility in an aqueous environment [4]: very low solubility
- survival following TBI ([5]; hematopoietic- or gastrointestinal-ARS-inducing doses of TBI): increasing survival
- time window of effectiveness relative to irradiation ([5]; in vivo radiation survival studies): effective 24 h prior to 72 h after irradiation
